Tests used:
[1] = test system: vespid wasps (paper wasps, hornets and yellowjackets); assay: Field trapping experiments, repellency stated for vespid wasps as a whole (yellowjackets and paper wasps; summaries); assay type: in vivo, Vespula pensylvanica; Polistes dominulus; conditions: for activity at doses tested: Experiment 9; for repellency on either yellowjackets or paper wasps or both to the attractant AA/2 MB: Experiments 1-3, late August to early September
Experimental: (§1) Eleven field trapping experiments were carried out from late August to mid-October 2009 in residential and woody areas around Spokane, Wash., USA, mostly using the trap known by the designation Rescue® W•H•Y (except on one occasion that Rescue® Reusable Yellowjacket Traps were used for a natural food attractant; see below for details). The commercial W•H•Y trap has a top chamber and a bottom chamber and is described in U.S. Patent Application Publication No. 2009/0151228. The top chamber is baited with two attractants—one of which is a solid contained in a vial (2-methyl-1-butanol), and the other is a liquid mixed with water (acetic acid). The bottom chamber is baited with a liquid attractant (heptyl butyrate) poured onto a cotton pad. Separation of the two types of attractants (otherwise antagonistic to each other when released from the same chamber) in two chambers creates two focal attraction sources from one trap for different species of wasps, hornets, and yellowjackets. […] In a special occasion, the commercial Rescue® Reusable Yellowjacket Traps were each baited with 10 g of chopped bacon (loaded into a cartridge) as a natural protein food attractant. Traps were hung 1.5-2.0 m above the ground on either fences or tree branches ca. 5 m apart between each trap and at least 15 m between sets. For each trapping experiment, three sets of traps (i.e., three physical replicates of each treatment) were deployed with their initial trap positions within each set being randomized. To minimize positional effects and obtain more replications, wasp collections and trap re-randomization were carried out when 5-10 wasps were caught in the best traps. Each replicate lasted several days depending on wasp flight activity. Captured wasps were removed from the traps and kept in the zip-bags before returning to the laboratory for recording of the species, gender status, and catch. Repellent candidates (individuals or mixtures) were released from polyethylene bags (3×5 cm; with a fabric felt) with various thicknesses from 2-12 mil (see release rates listed in tables); they were employed inside the same trap chamber as the attractant.
(§2) Experiment 1 tested five individual essential oils (pennyroyal, lemongrass, peppermint, clove, and citronella) and two known mosquito repellents (i.e., major components of catnip oil), E/Z-nepetalactone and Z/E-nepetalactone plus a blank control against a mixture of attractant [acetic acid (AA) and 2-methyl-1-butanol (2 MB)] using the W•H•Y traps (both attractant and repellent candidates were released from the top chamber) from for eight consecutive days from August to early September. Experiment 2 tested nine individual essential oils (ylang ylang, vetiver, myrrh, patchouli, geranium, eucalyptus, camphor, spearmint, and wintergreen) plus a blank control against a mixture of attractant (AA+2 MB) using the W•H•Y traps (both attractant and repellent candidates were released from the top chamber) for eight consecutive days from late August to early September. Experiment 3 tested seven individual essential oils (Roman chamomile, sage, fennel seed, rosemary, thyme, anise, and lavender) plus a blank control against a mixture of attractant (AA+2 MB) using the W•H•Y traps (both attractant and repellent candidates were released from the top chamber) for eight consecutive days from late August to early September. Experiment 4 tested two essential oil mixtures (3EO-mix: clove, geranium, and lemongrass in ca. 1:1:1 ratio; and 4EO-mix: clove, geranium, lemongrass, and rosemary in ca. 1:1:1:1 ratio) plus a blank control against a mixture of attractant (AA+2 MB) using the W•H•Y traps (both attractant and repellent candidates were released from the top chamber) for 13 consecutive days in September; the essential oil mixtures alone without attractant were tested in the same experiment.

[2] = test system: worker antennae of Vespula pensylvanica, Dolichovespula maculata, Polistes dominulus, and P. aurifer; assay: GC-EAD/MS analysis of SPME headspace samples of essential oils: antennal responses; conditions: for antennal (EAD) response to component of rosemary oil: V. pensylvanica and D. maculata antennae, FIG. 3; for antennal (EAD) response to component of geranium oil: V. pensylvanica, D. maculata, P. dominulus, or P. aurifer antennae
Experimental: Headspace volatiles from greater than 10 types of essential oils (1 ml each in a closed 20 ml glass vial) were sampled via Solid-Phase Micro-Extraction (SPME) (CAR/PDMS, 85 μm, Supelco, Bellefonte, Pa.) for 20-30 sec before GC-EAD and GC-MS analyses.
Paper wasp [European paper wasp (Polistes dominulus) or golden paper wasp (P. aurifer)] and yellowjacket [Western yellowjacket (Vespula pensylvanica) or Bald-faced hornet (Dolichovespula maculata)] workers for electrophysiological study were collected from their nests and kept alive at 4° C. before testing.
SPME samples of the various essential oils were injected splitless into a Varian CP-3800 GC equipped with a polar column (HP-INNOWAX; 30 m×0.53 mm×1.0 μm film thickness; Agilent Technologies, Wilmington, Del., USA) and a 1:1 effluent splitter that allowed simultaneous flame ionization detection (FID) and electroantennographic detection (EAD) of either a yellowjacket or paper wasp worker antenna to the separated volatile compounds. Helium was used as the carrier gas, and the injector and detector temperatures were 250° C. and 300° C., respectively. Column temperature was 50° C. for 1 min, rising to 240° C. at 10° C./min, and then held for 10 min. The outlet for the EAD was held in a humidified air stream flowing at 0.5 m/sec over the antennal preparation. EAD recordings were made using silver wire-glass capillary electrodes filled with Beadle-Ephrussi Ringer on freshly cut antennae. The antennal signals were stored and analyzed on a PC equipped with a serial IDAC interface box and the program EAD ver. 2.5 (Syntech, Hilversum, The Netherlands).
Compounds were identified by comparison of retention times with those of authentic standards and with mass spectra of standards.

[3] = test system: Paper wasps (mainly Polistes dominulus, plus a few of P. aurifer); assay: Field trapping, Rescue W•H•Y traps baited with attractant AA/2MB: captures of paper wasps; assay type: in vivo; conditions: N 9
Experimental: as §1, §2

[4] = test system: Yellowjackets (mainly Vespula pensylvanica (ca. 90%), plus V. vulgaris, V. germanica, and Dolichovespula maculata); assay: Field trapping, Rescue W•H•Y traps baited with attractant AA/2MB: captures of yellowjackets; assay type: in vivo; conditions: N 9
Experimental: as §1, §2

[5] = test system: Paper wasps (mainly Polistes dominulus, plus a few of P. aurifer); assay: Field trapping, Rescue W•H•Y traps baited with attractant heptyl butyrate: captures of paper wasps; assay type: in vivo
Experimental: (§3) Eleven field trapping experiments were carried out from late August to mid-October 2009 in residential and woody areas around Spokane, Wash., USA, mostly using the trap known by the designation Rescue® W•H•Y (except on one occasion that Rescue® Reusable Yellowjacket Traps were used for a natural food attractant; see below for details). The commercial W•H•Y trap has a top chamber and a bottom chamber and is described in U.S. Patent Application Publication No. 2009/0151228. The top chamber is baited with two attractants—one of which is a solid contained in a vial (2-methyl-1-butanol), and the other is a liquid mixed with water (acetic acid). The bottom chamber is baited with a liquid attractant (heptyl butyrate) poured onto a cotton pad. Separation of the two types of attractants (otherwise antagonistic to each other when released from the same chamber) in two chambers creates two focal attraction sources from one trap for different species of wasps, hornets, and yellowjackets. In order to test potential repellency of essential oils or EAD-active synthetic candidate compounds on different types of attractants, W•H•Y traps were baited with either a top attractant or a bottom attractant depending on the experiments. […]

[6] = test system: yellowjackets (mainly Vespula pensylvanica); assay: Field observation of landing and approaching of yellowjackets at heptyl butyrate attractant source (experiment 7); assay type: in vivo; conditions: Experiment 7, FIG. 1, attractant alone, 15 minutes observation replicates
Experimental: In addition, the repellency of the essential oil mixture (3EO-mix; at 0 cm and 50 cm above the heptyl butyrate attractant) on the landing behavior of yellowjackets was field observed (as experiment 7) on a September day for roughly 1.5 hours in Spokane, Wash. This observation test was conducted in the sun by setting up in a line east to west four portable light gray folding tables (45.7×66.0×67.3 cm) in a level area of grass near a vineyard. These tables were placed approximately 3 m apart. Chairs were set up approximately 4 m away from the tables for the scientists conducting the observations. On each table a black lab support stand was used with a movable metal bar in the horizontal direction clamped to the support stand for placing a repellent PE-bag dispenser (2 ml of 3EO-mix) or blank PE-bag at either 0 cm or 50 cm above the attractant, heptyl butyrate. A white towel was used to cover the black base of the support stand to provide a uniform color. A circle felt pad (3.5 cm diameter) loaded with 3 ml of heptyl butyrate as attractant or left blank for a negative control in a Petri dish (9 cm diameter) was placed on the base of the stand. […]
Trap catch data (number of wasps/trap/visit) and landing/approaching numbers were transformed by log (X+1) and the transformed means were analyzed by ANOVA, followed by the Duncan's multiple-range test (SPSS 16.0 for Windows) at α=0.05.

[7] = test system: Yellowjackets (mainly Vespula pensylvanica (ca. 90%), plus V. vulgaris, V. germanica, and Dolichovespula maculata); assay: Field trapping, Rescue W•H•Y traps baited with attractant heptyl butyrate: captures of yellowjackets; assay type: in vivo; conditions: Table 5, Experiment 5; treatment alone (essential oil mix alone, or attractant HB alone); 13 days in September; N 18
Experimental: as §3

[8] = Table 10, Experiment 11, attractant AA/2MB alone (row AA/2MB) or plus chemical, 16 days in October
[9] = Table 8, Experiment 9, attractant AA/2MB alone (row AA/2MB) or plus chemical, 13 days in September
[10] = Table 9, Experiment 10, attractant AA/2MB alone (row AA/2MB) or plus chemical, 18 days end of September through mid-October
[11] = Table 1, Experiment 1, attractant AA/2MB alone (row AA/2MB) or plus essential oil/chemical in same trap chamber, eight days late August to early September

Question: For `COc1ccc(C)cc1` [4-Methylanisole, 4-methylanisole], which “repellency to either yellowjackets or paper wasps” value ([1]; Experiment 11, AA/2 MB, at 90 mg/day release) is on record?
Answer: Its value is “did not show significant repellency”.

Question: What about the “antennal (EAD) response to component of ylang ylang oil” value ([2]; V. pensylvanica and P. dominulus worker antennae) of the same compound?
Answer: Its value is “strong and repeatable antennal responses”.

Question: And the “Mean/trap/visit ± SE Paper wasps” value [3, 8]?
Answer: Its value is 0.9 ± 0.5 a wasps/trap/visit.

Question: And the “Mean/trap/visit ± SE Yellowjackets” value [4, 8]?
Answer: Its value is 10.0 ± 5.0 b wasps/trap/visit.

Question: How did the “activity at doses tested” value ([1]; AA/2 MB) turn out when `CC1=CCC(O)(C(C)C)CC1` (stereo not shown) [4-Terpineol, 4-terpineol] was run?
Answer: The value was “inactive”.

Question: What about the “antennal (EAD) response to component of rosemary oil” value [2] of the same compound?
Answer: The value was “significant EAD-responses”.

Question: What about the “Mean/trap/visit ± SE Paper wasps” value [3, 9] of the same compound?
Answer: The value was 2.0 ± 0.7 ab wasps/trap/visit.

Question: And the “Mean/trap/visit ± SE Yellowjackets” value [4, 9]?
Answer: Its value is 23.3 ± 5.6 b wasps/trap/visit.

Question: How did the “repellency at the dose tested” value ([1]; Experiment 10, AA/2 MB) turn out when `CC(C)=CCC/C(C)=C/CO` [Geraniol, geraniol] was run?
Answer: The value was “not different from the attractant alone”.

Question: And the “antennal (EAD) response to component of geranium oil” value [2]?
Answer: The value was “significant and consistent EAD-responses”.

Question: What about the “Mean/trap/visit ± SE Paper wasps” value [3, 10] of the same compound?
Answer: The value was 2.9 ± 0.9 b wasps/trap/visit.

Question: And the “Mean/trap/visit ± SE Yellowjackets” value [4, 10]?
Answer: Its value is 21.8 ± 6.0 cd wasps/trap/visit.

Question: Which results are given for `CCCCCCCOC(=O)CCC` [HB, heptyl butyrate]?
Answer: attraction of paper wasps to heptyl butyrate ([5]; Experiment 5): not attracted; Mean/trap/visit ± SE Paper wasps ([5]; Table 5, Experiment 5, treatment alone (essential oil mix alone, or attractant HB alone), 13 days in September, N 18): 1.3 ± 0.6 a wasps/trap/visit; average number of yellowjackets landing [6]: 5; average number of yellowjackets approaching ([6]; within 0.5 m): 12; Mean/trap/visit ± SE Yellowjackets [7]: 39.7 ± 13.6 b wasps/trap/visit

Question: Which results are given for `CC1=CCC(C(C)(C)O)CC1` (stereo not drawn) [α-Terpineol, α-terpineol]?
Answer: activity at doses tested ([1]; AA/2 MB): inactive; antennal (EAD) response to component of rosemary oil [2]: significant EAD-responses; Mean/trap/visit ± SE Paper wasps [3, 9]: 2.2 ± 0.9 ab wasps/trap/visit; Mean/trap/visit ± SE Yellowjackets [4, 9]: 21.9 ± 5.7 b wasps/trap/visit

Question: Which “activity at doses tested” value ([1]; AA/2 MB) does the source give for `CC(C)=CCCC(C)CCO` (stereo not drawn) [β-Citronellol, β-citronellol] here?
Answer: The value was “inactive”.

Question: And the “antennal (EAD) response to component of geranium oil” value [2]?
Answer: The value was “significant and consistent EAD-responses”.

Question: What about the “Mean/trap/visit ± SE Paper wasps” value [3, 9] of the same compound?
Answer: Its value is 5.1 ± 1.6 b wasps/trap/visit.

Question: And the “Mean/trap/visit ± SE Yellowjackets” value [4, 9]?
Answer: The value was 36.2 ± 6.8 b wasps/trap/visit.

Question: Which “repellency on either yellowjackets or paper wasps or both to the attractant AA/2 MB” value [1] does the source give for E/Z-nepetalactone [EZ-Neptalactone] here?
Answer: Its value is “partially significant repellency”.

Question: What about the “Mean/trap/visit ± SE Paper wasps” value [3, 11] of the same compound?
Answer: Its value is 3.2 ± 1.1 bc wasps/trap/visit.

Question: And the “Mean/trap/visit ± SE Yellowjackets” value [4, 11]?
Answer: The value was 11.2 ± 3.6 b wasps/trap/visit.

Question: For Z/E-nepetalactone [ZE-Neptalactone], which “repellency on either yellowjackets or paper wasps or both to the attractant AA/2 MB” value [1] is on record?
Answer: The value was “partially significant repellency”.

Question: What about the “Mean/trap/visit ± SE Paper wasps” value [3, 11] of the same compound?
Answer: The value was 11.3 ± 4.5 c wasps/trap/visit.

Question: And the “Mean/trap/visit ± SE Yellowjackets” value [4, 11]?
Answer: Its value is 52.1 ± 16.2 cd wasps/trap/visit.

From US20120107428A1, “REPELLENTS FOR PESTIFEROUS SOCIAL WASPS” (Sterling International Inc., priority 2010, published 2012)
